According to PMC12415608 (Molecular biology of the cell, 2025):

Target: PaFimX (Pseudomonas aeruginosa, UniProt Q9HUK6)
Test: isothermal titration calorimetry
Type: binding

Work on `Nc1nc2c(ncn2[C@@H]2O[C@@H]3CO[P@](=O)(O)O[C@H]4[C@@H](O)[C@H](n5cnc6c(=O)[nH]c(N)nc65)O[C@@H]4CO[P@](=O)(O)O[C@H]3[C@H]2O)c(=O)[nH]1` [cdG] yielded a Kd of 144 nM.
